According to patent publication US7361658B2, “2-acylaminothiazole derivative or salt thereof” (Astellas Pharma Inc., priority 2003, dated 2008):

Experiments:
human c-mpl-Ba/F3 cells [1] = target: T1, human c-mpl-Ba/F3 cells (Homo sapiens, UniProt P40238); test: Human c-mpl-Ba/F3 cell growth test; type: cell-based; settings: for Pot: concentration at which cell growth is accelerated by 30% of the maximum cell growth activity of compound A, 24 h culture; for Emax: maximum cell growth activity, maximum of compound A defined as 100%, read-out: Efficacy
T1 construct: expressed in transfected cells; host or cells: Ba/F3 (murine pro-B cells) expressing human c-mpl
T1 sequence (P40238 26-635): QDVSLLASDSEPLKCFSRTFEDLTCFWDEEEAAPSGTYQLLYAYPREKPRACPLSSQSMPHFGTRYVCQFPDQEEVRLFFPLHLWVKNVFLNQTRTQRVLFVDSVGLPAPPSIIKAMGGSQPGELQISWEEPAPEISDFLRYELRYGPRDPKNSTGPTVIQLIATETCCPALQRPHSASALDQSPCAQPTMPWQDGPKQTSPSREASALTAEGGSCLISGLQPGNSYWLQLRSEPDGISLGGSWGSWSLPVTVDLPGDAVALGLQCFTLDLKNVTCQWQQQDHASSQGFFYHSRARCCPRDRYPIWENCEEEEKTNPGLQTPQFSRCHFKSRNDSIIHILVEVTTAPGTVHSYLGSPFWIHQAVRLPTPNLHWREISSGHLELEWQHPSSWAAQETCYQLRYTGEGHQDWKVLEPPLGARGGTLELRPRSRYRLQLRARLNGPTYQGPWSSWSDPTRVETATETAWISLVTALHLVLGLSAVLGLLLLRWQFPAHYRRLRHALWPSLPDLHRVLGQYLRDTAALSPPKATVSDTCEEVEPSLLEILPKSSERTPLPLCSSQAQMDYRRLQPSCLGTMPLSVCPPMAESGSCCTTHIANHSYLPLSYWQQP
Description: (i) Human c-mpl-Ba/F3 Cell Growth Test
In a 96-well microplate, 2×10^5 cells/ml of human c-mpl-Ba/F3 cells were cultured at 37° C. in 10% fetal bovine serum-containing RPMI1640 medium (100 μl/well) containing each test compound at each concentration. After 24 hours from the start-up of culture, 10 μl/well of WST-1/1-methoxy PMS (cell counting kit, Dojin) was added. Immediately after addition and 2 hours after addition, absorbance of A450/A650 was measured with a microplate reader (Model 3350: Bio-Rad), and an increase in absorbance for 2 hours was defined as a growth activity of each test compound.
pot: Concentration of each test compound at which to accelerate cell growth by 30% of a maximum cell growth activity of compound A (compound A and rhTPO in rhTPO)
Efficacy: Maximum cell growth activity of each test compound when a maximum cell growth activity of compound A (compound A and rhTPO in rhTPO) is defined as 100%.
Compound A refers to a compound in Example 9 of the foregoing Patent Document 10.

Human CD34+ cells = test: Test for measuring a function of accelerating formation of megakaryocytic colonies; type: cell-based; settings: megakaryocytic colony formation, 10 to 14 days, MegaCult-C
Description: (ii) Test for Measuring a Function of Accelerating Formation of Megakaryocytic Colonies
Human CD34^+ cells were cultured in a 2-well chamber slide in the presence of a test product at 37° C. for from 10 to 14 days using MegaCult™-C (StemCell Technologies). After dehydration and fixation were conducted according to the attached manual, dying was conducted with an anti-glycoprotein IIb/IIIa antibody. The number of colonies for 1 well was counted by a microscope on condition that a population of 3 or more dyed megakaryocytes was one colony. An EC30 value of each test compound was calculated from a dose curve.

human c-mpl-Ba/F3 cells [2] = target: T1, human c-mpl-Ba/F3 cells; test: Mouse oral administration test: human c-mpl-Ba/F3 cell growth activity of a plasma after oral administration; type: in vivo; settings: male ICR mouse, 3 mg/kg p.o., plasma 2 h after administration, maximum activity of each test compound = 100%
Description: (iii) Mouse Oral Administration Test
3 mg/kg or 10 mg/kg (100 mg/kg in Comparative Compounds 1 to 3) of a test compound dissolved or suspended in a 0.5% methylcellulose aqueous solution was orally administered to a male ICR mouse. After 2 hours from administration, a blood was sampled from the subabdominal large vein using 1/10-volume 3.8% sodium citrate as an anticoagulant. Centrifugation was performed at 12,000 rpm for 3 minutes. The resulting plasma was heated at 56° C. for 30 minutes, and added to a system of the human c-mpl-Ba/F3 cell growth test described in (i) such that the final concentration of the plasma reached 0.3%, 1% or 3% (10% in Comparative Compounds 1 to 3) to measure a cell growth activity. The cell growth activity (%) of each plasma was measured when the maximum cell growth activity of each test compound was defined as 100%.

Row | Pot (human c-mpl-Ba/F3 cells [1]) [nM] | Emax (human c-mpl-Ba/F3 cells [1]) [%] | Cell growth activity (human c-mpl-Ba/F3 cells [2]; dilution rate 1%) [%] | Cell growth activity (human c-mpl-Ba/F3 cells [2]; dilution rate 3%) | Cell growth activity (human c-mpl-Ba/F3 cells [2]; dilution rate 0.3%) | Compound | EC30 value (Human CD34+ cells) [nM]
1 | 2.1 | 112 | 63 |  |  | C[C@H]1CCCN1Cc1sc(NC(=O)c2cnc(N3CCC(C(=O)O)CC3)c(Cl)c2)nc1-c1cc(Cl)cs1 [Example 106, 1-{3-chloro-5-[(4-(4-chlorothiophen-2-yl)-5-{[(2S)-2-methylpyrrolidin-1-yl]methyl}thiazol-2-yl)carbamoyl]-2-pyridyl}piperidine-4-carboxylic acid] | 23
2 | 3.2 | 98 |  |  |  | C[C@@H]1CCCN1Cc1sc(NC(=O)c2cnc(N3CCC(C(=O)O)CC3)c(F)c2)nc1-c1cc(Cl)cs1 [Example 315, 1-{5-[(4-(4-chlorothiophen-2-yl)-5-{[(2R)-2-methylpyrrolidin-1-yl]methyl}thiazol-2-yl)carbamoyl]-3-fluoro-2-pyridyl}piperidin-4-carboxylic acid] | 45

The next lines start with the compound.

Row | Compound | Pot (human c-mpl-Ba/F3 cells [1]) [nM] | Emax (human c-mpl-Ba/F3 cells [1]) [%] | Cell growth activity (human c-mpl-Ba/F3 cells [2]; dilution rate 1%) [%] | Cell growth activity (human c-mpl-Ba/F3 cells [2]; dilution rate 3%) | Cell growth activity (human c-mpl-Ba/F3 cells [2]; dilution rate 0.3%) | EC30 value (Human CD34+ cells) [nM]
3 | CN(Cc1sc(NC(=O)c2cnc(N3CCC(C(=O)O)CC3)c(Cl)c2)nc1-c1cc(Cl)cs1)C1CCC1 [Example 100, 1-{3-chloro-5-[(4-(4-chlorothiophen-2-yl)-5-{[cyclobutyl(methyl)amino]methyl}thiazol-2-yl)carbamoyl]-2-pyridyl}piperidine-4-carboxylic acid] | 2.9 | 117 |  | ≧80% |  | 34
4 | CC(C)N(C)Cc1sc(NC(=O)c2cnc(N3CCC(C(=O)O)CC3)c(Cl)c2)nc1-c1cc(Cl)cs1 [Example 104, 1-{3-chloro-5-[(4-(4-chlorothiophen-2-yl)-5-{[isopropyl(methyl)amino]methyl}thiazol-2-yl)carbamoyl]-2-pyridyl}piperidine-4-carboxylic acid] | 3.5 | 105 | 63 |  |  | 36
5 | CCCCN(C)Cc1sc(NC(=O)c2cnc(N3CCC(C(=O)O)CC3)c(Cl)c2)nc1-c1cc(Cl)cs1 [Example 71, 1-(5-{[5-{[butyl(methyl)amino]methyl}-4-(4-chlorothiophen-2-yl)thiazol-2-yl]carbamoyl}-3-chloro-2-pyridyl)piperidin-4-carboxylic acid] | 2.0 | 110 |  | ≧80% |  | 20
6 | CN(Cc1sc(NC(=O)c2cnc(N3CCC(C(=O)O)CC3)c(Cl)c2)nc1-c1cc(Cl)cs1)C1CCCCC1 [Example 90, 1-{3-chloro-5-[(4-(4-chlorothiophen-2-yl)-5-{[cyclohexyl(methyl)amino]methyl}thiazol-2-yl)carbamoyl]-2-pyridyl}piperidine-4-carboxylic acid] | 2.0 | 94 |  |  | ≧80% | 
